Data reported in paper PMC3950497 (Advances in Pharmacological Sciences, 2014).
Read-outs that look alike come from different tables or passages of the source.

What was measured:
[1] = format: physicochemical
Experimental: Freeze-thaw stability of stephaglabrine sulfate solution was evaluated because samples were stored at −20°C. The stability of stephaglabrine pool solutions (in water-acetonitrile 20%) at concentrations of 10 μg/mL, 50 μg/mL, and 100 μg/mL was evaluated after three cycles of overnight freezing following 3 hours of bench thaw at ambient temperature. The loss of stepharine was evaluated by comparison with freshly prepared standard solutions of the same concentrations. Loss of 10% and less was accepted.

[2] = format: in vivo, rabbit; conditions: for Measured mean concentration of stephaglabrin in plasma: i.m. stephaglabrine sulfate 0.1 mg/kg single dose
Experimental: The selected rabbits were administrated intramuscular with stephaglabrine sulfate at doses 0.1 mg/kg as it was established before. Each animal received a single dose.
Quantitative analysis was acquired in SRM (selected reactions monitoring) mode on Agilent 6490 triple quadrupole mass spectrometer (Agilent, USA) operated in the positive mode and equipped with Jet Stream ESI ion source. Stepharine was detected in the scheduled selected reaction monitoring (SRM) with unit resolution at both first (Q1) and third (Q3) quadrupoles. The retention time point of stepharine was determined as 9.8 with isolation width of 1 minute for the scheduled SRM method application. The optimal conditions of the analysis were achieved as follows: capillary voltage was −4500 V, nozzle voltage was set at −1200 V, flow rate of drying gas (N2) was 16 L/min, flow rate of sheath gas (N2) was 8 L/min, temperature of drying gas was set at 340°C, temperature of sheath gas was set at 290°C, and nebulizer gas was operated at 20 psi. The transitions for protonated stepharine [M+H]^+ 298.4 → 161.2, 192.1, 238.2 were selected for SRM analysis. The isolation window for the fragment ions was set at 0.27 amu, the optimum fragmentor voltage was adjusted to 310 V and collision energy −19 eV. All the samples including calibration points were analyzed in three replications. 30 μL of the samples was injected and loaded on chromatographic column. Calibration was performed on standard samples solution prepared in 20% acetonitrile with concentration of stepharine from 10^−4 μg/mL to 100 μg/mL. Chromatographic separation was performed on Thermo Hypersil-Keystone ODS column (Thermo Scientific, USA) 100 × 2.1 mm, 5 μm particle size, at flow rate of 200 μL/min and with the following elution conditions: loading onto the column at maintained 20% of mobile phase B for 3 minutes, increasing the gradient to 50% of B at 5 minutes following increasing the gradient to 100% of mobile phase B at 15 minutes. The column was washed and maintained at 100% mobile phase B from 15 to 22 minutes and the composition was decreased to 20% of solvent B at 23 minute. The column was reequilibrated at starting conditions of solvent A-solvent B system ([…], v/v) for 10 minutes at flow 200 μL/min.
0.5 mL of blood samples from each animal was collected from ear vein in the tubes with EDTA before administration and at 15, 30, 60, 90, 120, 180, 480, 720, and 1440 minutes after drug ingestion. Blood samples were immediately put on ice and centrifuged at 5000 g for 10 minutes at 4°C within one hour after blood collection. The obtained plasma was placed in sterile tube and kept at −20°C until analysis.
Plasma proteins were precipitated with acetonitrile. For this purpose, two volumes of acetonitrile were added to 100 μL of rabbit plasma into 1.5 mL plastic tube and 30% ammonia hydroxide was added to adjust the pH to 10. After vortex-mixing for 15 minutes at ambient temperature one volume of chloroform was added three times consequently for 2 hours and incubated at 30°C under regular stirring at 900 rpm at each occasion. The first fraction of upper organic layer was collected after 2 hours of incubation, the second and the third fractions of chloroform extract were collected after additional 30 and 60 minutes of incubation, respectively. The collected fractions were combined and transferred to a new tube and dried under vacuum at 30°C. The resulting pellet was resuspended in 100 μL of 20% water-acetonitrile solution and centrifuged at 14000 rpm for 15 minutes immediately before use. The obtained solution was used for LC-MS analysis. […]

With COc1cc2c3c(c1OC)C1(C=CC(=O)C=C1)C[C@@H]3NCC2 [stepharine] the “loss during three freeze-thaw cycles” value ([1]; solutions in water-acetonitrile 20% at 10, 50 and 100 μg/mL, overnight freezing, 3 hours bench thaw at ambient temperature) was “less than 6%”, the mean sample stability ([1]; three freeze-thaw cycles, solutions in water-acetonitrile 20%) was 94.6% and the “time of maximum concentration (C max)” value ([2]; all rabbits, i.m. 0.1 mg/kg stephaglabrine sulfate) was 90 min. The “Measured mean concentration of stephaglabrin in plasma” value (shortened to “Measured mean concentration”) ([2]; rabbit ST01, 15 min after administration) was 8.1 ± 0.6 ng/mL, the “Measured mean concentration” value ([2]; rabbit ST01, 30 min after administration) was 9.4 ± 0.5 ng/mL and the “Measured mean concentration” value ([2]; rabbit ST01, 60 min after administration) was 10.0 ± 0.3 ng/mL. The “Measured mean concentration” value ([2]; rabbit ST01, 90 min after administration) was 13.9 ± 0.9 ng/mL, the “Measured mean concentration” value ([2]; rabbit ST01, 120 min after administration) was 5.8 ± 0.1 ng/mL and the “Measured mean concentration” value ([2]; rabbit ST01, 180 min after administration) was 3.8 ± 0.1 ng/mL. For the same molecule, the “Measured mean concentration” value ([2]; rabbit ST01, 480 min after administration) was 1.8 ± 0.02 ng/mL, the “Measured mean concentration” value ([2]; rabbit ST01, 720 min after administration) was 1.5 ± 0.02 ng/mL and the “Measured mean concentration” value ([2]; rabbit ST01, 1440 min after administration) was 0 ng/mL. For the same molecule, the “Measured mean concentration” value ([2]; rabbit ST02, 15 min after administration) was 7.9 ± 0.2 ng/mL, the “Measured mean concentration” value ([2]; rabbit ST02, 30 min after administration) was 16.5 ± 0.8 ng/mL and the “Measured mean concentration” value ([2]; rabbit ST02, 60 min after administration) was 29.3 ± 2.2 ng/mL. The “Measured mean concentration” value ([2]; rabbit ST02, 90 min after administration) was 33.9 ± 2.8 ng/mL, the “Measured mean concentration” value ([2]; rabbit ST02, 120 min after administration) was 10.4 ± 0.5 ng/mL and the “Measured mean concentration” value ([2]; rabbit ST02, 180 min after administration) was 7.8 ± 0.3 ng/mL. The “Measured mean concentration” value ([2]; rabbit ST02, 480 min after administration) was 1.2 ± 0.02 ng/mL, the “Measured mean concentration” value ([2]; rabbit ST02, 720 min after administration) was 1.3 ± 0.01 ng/mL and the “Measured mean concentration” value ([2]; rabbit ST02, 1440 min after administration) was 0 ng/mL. The “Measured mean concentration” value ([2]; rabbit ST03, 15 min after administration) was 6.8 ± 0.4 ng/mL, the “Measured mean concentration” value ([2]; rabbit ST03, 30 min after administration) was 14.8 ± 0.2 ng/mL and the “Measured mean concentration” value ([2]; rabbit ST03, 60 min after administration) was 19.5 ± 0.6 ng/mL. For the same molecule, the “Measured mean concentration” value ([2]; rabbit ST03, 90 min after administration) was 20.4 ± 1.7 ng/mL, the “Measured mean concentration” value ([2]; rabbit ST03, 120 min after administration) was 6.5 ± 0.1 ng/mL and the “Measured mean concentration” value ([2]; rabbit ST04, 15 min after administration) was 5.7 ± 0.2 ng/mL. The “Measured mean concentration” value ([2]; rabbit ST04, 30 min after administration) was 7.3 ± 0.3 ng/mL, the “Measured mean concentration” value ([2]; rabbit ST04, 60 min after administration) was 9.5 ± 0.5 ng/mL and the “Measured mean concentration” value ([2]; rabbit ST04, 90 min after administration) was 14.2 ± 0.2 ng/mL. The “Measured mean concentration” value ([2]; rabbit ST04, 120 min after administration) was 9.7 ± 0.2 ng/mL, the “Measured mean concentration” value ([2]; rabbit ST04, 180 min after administration) was 2.8 ± 0.2 ng/mL and the “Measured mean concentration” value ([2]; rabbit ST04, 480 min after administration) was 0.7 ± 0.01 ng/mL. For the same molecule, the “Measured mean concentration” value ([2]; rabbit ST04, 720 min after administration) was 0.6 ± 0.01 ng/mL, the “Measured mean concentration” value ([2]; rabbit ST04, 1440 min after administration) was 0 ng/mL and the “Measured mean concentration” value ([2]; rabbit ST05, 15 min after administration) was 6.3 ± 0.2 ng/mL. The “Measured mean concentration” value ([2]; rabbit ST05, 30 min after administration) was 12.7 ± 0.3 ng/mL, the “Measured mean concentration” value ([2]; rabbit ST05, 60 min after administration) was 18.5 ± 0.2 ng/mL and the “Measured mean concentration” value ([2]; rabbit ST05, 90 min after administration) was 21.2 ± 0.2 ng/mL. For the same molecule, the “Measured mean concentration” value ([2]; rabbit ST05, 120 min after administration) was 5.1 ± 0.3 ng/mL, the “Measured mean concentration” value ([2]; rabbit ST05, 180 min after administration) was 2.9 ± 0.07 ng/mL and the “Measured mean concentration” value ([2]; rabbit ST05, 480 min after administration) was 1.4 ± 0.08 ng/mL. The “Measured mean concentration” value ([2]; rabbit ST05, 720 min after administration) was 0.9 ± 0.04 ng/mL, the “Measured mean concentration” value ([2]; rabbit ST05, 1440 min after administration) was 0 ng/mL and the “Measured mean concentration” value ([2]; rabbit ST06, 15 min after administration) was 7.0 ± 0.3 ng/mL. For the same molecule, the “Measured mean concentration” value ([2]; rabbit ST06, 30 min after administration) was 13.9 ± 0.2 ng/mL, the “Measured mean concentration” value ([2]; rabbit ST06, 60 min after administration) was 20.4 ± 0.2 ng/mL and the “Measured mean concentration” value ([2]; rabbit ST06, 90 min after administration) was 25.8 ± 0.1 ng/mL. The “Measured mean concentration” value ([2]; rabbit ST06, 120 min after administration) was 7.6 ± 0.09 ng/mL, the “Measured mean concentration” value ([2]; rabbit ST06, 180 min after administration) was 3.3 ± 0.08 ng/mL and the “Measured mean concentration” value ([2]; rabbit ST06, 480 min after administration) was 1.2 ± 0.08 ng/mL. The “Measured mean concentration” value ([2]; rabbit ST06, 720 min after administration) was 0.7 ± 0.02 ng/mL, the “Measured mean concentration” value ([2]; rabbit ST06, 1440 min after administration) was 0 ng/mL and the “presence in plasma samples after 24 hours” value ([2]; rabbits, 24 hours after intramuscular administration) was “not found”. The “apparent volume of distribution” value ([2]; rabbits, estimated as ratio of clearance to elimination rate constant, data not shown) was “extensively distributed throughout the body”.
